Laboratory results published in patent US12385900B2, “Method for evaluating cytotoxicity of gas” (DAIKIN INDUSTRIES, LTD., priority 2018, dated 2025).

Columns and labels:
[1] = test system: Human iPS cell-derived cardiomyocytes (iCell cardiomyocytes^2, CDI); experiment: Cytotoxicity evaluation test: number of beats of cardiomyocytes during gas flow onto the cell culture medium; type: cell-based
Protocol: Human iPS cell-derived cardiomyocytes (iCell cardiomyocytes^2, CDI) were seeded into a 96-well half-area plate at a density of 40,000 cells/well, followed by culture in an incubator for 7 to 10 days. Subsequently, a Ca indicator (EarlyTox Cardiotoxicity Kit, Molecular Devices) was added at 30 μL/well to the cardiomyocytes. Subsequently, chlorodifluoromethane (Example) or difluoromethane (Reference Example) was allowed to flow onto the surface of the cell culture medium in a closed vessel at a flow rate of 50 mL/min. During the flow, the cell culture medium was maintained at a pH of 7.4, a temperature of 37° C., and an air pressure in the incubator of 101.3 kPa. The number of beats of cardiomyocytes from the start of the flow to 10 minutes after the start of the flow was measured by a fluorescence measurement with a confocal quantitative image cytometer (CQ1, Yokogawa Electric Corporation).

heart = settings: reported / known; cited from earlier work

SMILES: FCF [difluoromethane]
- change in the number of beats of cardiomyocytes [1]: almost no change
- Average number of beats (beats/30 sec) ([1]; human, 0 min, pH 7.4): 16.1 beats/30 sec
- Average number of beats (beats/30 sec) ([1]; human, 10 min, pH 7.4): 16.5 beats/30 sec
- effects on the heart (heart): no significant effects on the heart

SMILES: FC(F)Cl [chlorodifluoromethane]
- increase in the number of beats ([1]; 10 minutes after the start of the flow): 74%
- Average number of beats (beats/30 sec) ([1]; exposure time 0 min (start of flow), gas flow 50 mL/min onto medium surface, pH 7.4, 37° C., 101.3 kPa): 14.5 beats/30 sec
- Average number of beats (beats/30 sec) ([1]; exposure time 10 min, gas flow 50 mL/min onto medium surface, pH 7.4, 37° C., 101.3 kPa): 25.3 beats/30 sec
- effects on the heart (heart): has effects on the heart
